Source: patent publication US6943186B2, “Methods of treating sepsis” (Yung Shin Pharmaceutical Ind. Co., Ltd., priority 2002, dated 2005)
Where “and” joins values, the source holds several entries; their conditions need not be identical. Equal values may be shown once. Entries after “also recorded” stand apart in the source; their conditions may differ.

Assays:
[1] = Free radical-scavenging activity with 1,1-diphenyl-2-picrylhydrazyl; details: stable radical 1,1-diphenyl-2-picrylhydrazyl; data not shown
[2] = tested on: Bcl-2; experiment: Western blot of Bcl-2 levels; assay type: cell-based, rat
Procedure: (§1) Western Blot Analysis After the exposure of cells to the indicated agents for four (for Bcl-2) or six (for cytochrome c) hours, cells were washed twice with ice-cold PBS and reaction was terminated by the addition of 100 μL ice-cold lysis buffer (10 mmol/L Tris-HCl, pH 7.4, 150 mmol/L NaCl, 1 mmol/L EGTA, 0.5 mmol/L phenylmethylsulfonyl fluoride (PMSF), 10 μg/mL aprotinin, 10 μg/mL leupeptin, and 1% Triton X-100). For the detection of phosphorylated Akt, 1 mmol/L Na3VO4, 1 mmol/L NaF, 50 mmol/L tetrasodium pyrophosphate, 10 nmol/L okadaic acid, 0.25% sodium deoxycholate were included in the lysis buffer. Protein content was determined by the Bio-Rad protein assay (Bio-Rad Laboratories, CA, USA). For Western blot analysis, cell lysates (25 μg/lane) were electrophoresized on 10-15% SDS-polyacrylamide gels, and transferred to a nitrocellulose membrane. The membranes were probed with anti-Bcl-2 or anti-α-tubulin monoclonal antibody, or anti-phosphorylated Akt polyclonal antibody. The transferred membranes were developed with a secondary anti-mouse or anti-rabbit antibody as we previously described (Guh et al. (1998) Eur. J. Pharmacol. 359: 281-284). Detection of signal was performed with an enhanced chemiluminescence detection kit (ECL; Amersham International, Little Chalfont, U.K.).

[3] = Reduction of cytochrome c by superoxide anion (xanthine/xanthine oxidase); assay type: biochemical; details: xanthine/xanthine oxidase system; control 42.0±2.1; P=0.4, n=4
[4] = tested on: NR8383 macrophages; experiment: LPS/interferon γ-induced tumor necrosis factor-α release; assay type: cell-based; details: control 15.5±1.3, P=0.13, n=4
[5] = tested on: LPS-induced septic death in mouse model; experiment: LPS-induced endotoxic shock (septic death) and lung histology; assay type: in vivo, mice
Procedure: Induction of Endotoxic Shock and Histological Examination In these experiments, mice (25-30 g, ICR strain) were injected intraperitoneally with 60 mg/kg of LPS (dissolved in PBS), and Compound 3 (suspended in carboxymethyl cellulose) was orally administered after the injection of LPS for 2 and 6 hours. The survival rate was monitored every 3 to 6 hours after LPS injection. For histological examination, the lung tissues were put into the 4% paraformaldehyde and embedded in paraffin. The embedded tissues were sectioned at 6-μm thick, stained with hematoxylin-eosin, and analyzed using a microscopy.

[6] = tested on: rat aortic smooth muscle cells; experiment: Cytotoxicity (MTT) assay and TUNEL labeling, SNP-induced apoptosis in RASMCs; assay type: cell-based; details: for Cell survival (%) / effect on SNP-induced apoptosis / effect on Compound 3-induced cell proliferation / effect on Compound 3-mediated anti-apoptotic action: RASMCs; for effect on SNP-induced apoptosis: SNP 1 mmol/L, Compound 3 30 μmol/L; for effect on Compound 3-mediated anti-apoptotic action: inhibitor added to Compound 3 + SNP
Procedure: (§2) Cell Culture Rat aortic smooth muscle cells (RASMCs) were prepared from Sprague-Dawley rats and cultured in Dulbecco's modified Eagle's medium (DMEM) supplemented with 10% FBS, 100 units/mL penicillin and 100 μg/mL streptomycin (Gibco, Grand Island, N.Y.) as previously described (Yang et al. (2001) Br J Pharmacol. 132: 1531-1541). Cells within six generations were used in the present study. Cells were identified being the smooth muscle cells by immunostaining with monoclonal antibody specific for smooth muscle α-actin.
Cytotoxicity Assay The cytotoxicity assay was carried out using the MTT assay method. MTT (3-(4,5-dimethylthiazol-2-yl)-2,5-diphenyltetrazolium bromide, Sigma Chemical, St. Louis, Mo.) was dissolved in phosphate-buffered saline (PBS) at a concentration of 5 mg/mL and filtered (Millipore, Bedford, Mass.). From this stock solution, 10 μL/100 μL of medium was added to each well of a plate, and the plate was gently shaken and incubated at 37° C. for 2 hours. […] After the loading of MTT, the medium was replaced with 100 μL dimethylsulphoxide (DMSO). The extent of reduction of MTT to formazan within cells was quantified by the measurement of OD550 with an enzyme-linked immunosorbent assay (ELISA) reader.
In Situ Labeling of Apoptotic Cells In situ detection of apoptotic cells was carried out by using a terminal deoxynucleotidyl transferase (TdT) dUTP nick-end labeling (TUNEL) method with an apoptotic detection kit (Promega, Madison, Wis., USA) as described previously (Guh et al. (1998) Mol Pharmacol. 53: 467-474). The TUNEL method identifies apoptotic cells in situ by using TdT to transfer biotin-dUTP to the free 3′-OH of cleaved DNA. The biotin-labeled cleavage sites then were visualized by reaction with fluorescein conjugated avidin (avidin-fluorescein isothiocyanate). Photomicrographs were obtained with a fluorescence microscope (Nikon).

[7] = tested on: caspase-3; experiment: Determination of caspase-3 activity in RASMCs; assay type: cell-based, rat
Procedure: Determination of Caspase-3 Activity
The Caspase-3 activity was assayed with the Caspase-3 colorimetric assay kit (R&D Systems, Inc., Minneapolis, Minn.). After the treatment of cells with indicated agents for ten hours, cells were washed twice with ice-cold PBS, trypsinized, and centrifuged (800×g for 5 minutes), and the cell pellet was re-suspended in pre-cooled lysis buffer obtained from the Caspase-3 colorimetric assay kit. After 10 minutes of incubation on ice, cell homogenates were centrifuged at 10,000×g for 1 minute and supernatants were removed for the determination of caspase-3 activity. Proteolytic reactions were performed in a total volume of 100 μL reaction buffer containing 50 μL of cytosolic extracts and 5 μL DEVD-pNA obtained from the kit. The reaction mixture was incubated at 37° C. for one to two hours and the formation of p-nitroaniline was then measured at 405 nm by an ELISA reader.

[8] = tested on: cytochrome c; experiment: Detection of cytochrome c release; assay type: cell-based, rat
Procedure: Detection of Cytochrome c Release Reaction Cells were trypsinized and centrifuged at 800×g for 10 minutes. Then, the cell pellet was re-suspended in 50 μL of extraction buffer containing 20 mmol/L HEPES, pH 7.5, 10 mmol/L KCl, 1.5 mmol/L MgCl2, 1 mmol/L EDTA, 1 mmol/L EGTA, 1 mmol/L dithithretol, 1 mmol/L PMSF) and incubated for 3 minutes on ice. Cells were managed with 30 strokes and centrifuged at 15,000×g for 15 minutes at 4° C. Aliquots of 20 μg protein were resolved on 15% SDS-polyacrylamide gel and then blotted to PVDF membranes. Membranes were incubated with anti-cytochrome c monoclonal antibody. Then, membranes were incubated with anti-mouse IgG and the expression of cytochrome c was detected as described previously.
Western Blot Analysis After the exposure of cells to the indicated agents for four (for Bcl-2) or six (for cytochrome c) hours, cells were washed twice with ice-cold PBS and reaction was terminated by the addition of 100 μL ice-cold lysis buffer (10 mmol/L Tris-HCl, pH 7.4, 150 mmol/L NaCl, 1 mmol/L EGTA, 0.5 mmol/L phenylmethylsulfonyl fluoride (PMSF), 10 μg/mL aprotinin, 10 μg/mL leupeptin, and 1% Triton X-100). […] Protein content was determined by the Bio-Rad protein assay (Bio-Rad Laboratories, CA, USA). […]

[9] = tested on: intracellular cGMP levels; experiment: Assay of cGMP contents; assay type: cell-based, rat
Procedure: as §2
Assay of cGMP Contents At confluence, monolayer cells were incubated with indicated agents for 10 minutes. Then cells were washed twice with ice-cold PBS and lysed with 0.5 mL NaOH (0.1 mol/L). 0.5 mL HCl (0.1 mol/L) was then added to neutralize the assay solution. After the centrifugation (3,000×g for 3 minutes), the supernatant was used for the detection of cGMP content by using a cGMP ELISA kit.

[10] = tested on: murine macrophage RAW 264.7 cells; experiment: LPS-evoked NO formation; assay type: cell-based; details: RAW 264.7, LPS 1 μg/mL, 24-hour; control 68.8±13.4; P=0.43, n=4
[11] = tested on: phosphorylated Akt; experiment: Western blot of phosphorylated Akt; assay type: cell-based, rat
Procedure: as §1

[12] = tested on: cyclooxygenase; details: Ko et al. (1994) Blood 84: 4226-4233; cited from earlier work
[13] = single agent alone, mean ± SEM, control 100
[14] = combination of SNP and Compound 3
[15] = inhibitor added to Compound 3 + SNP

With OCc1ccc(-c2nn(Cc3ccccc3)c3ccccc23)o1 [Compound 3] the free radical-scavenging activity [1] was “little free radical-scavenging activity”, the “effect on SNP-induced Bcl-2 down-regulation” value ([2]; SNP 1 mmol/L) was “completely prevented” and the “reduction of cytochrome c by superoxide anion” value [3] was 40±0.6%. For the same compound, the “LPS/interferon γ-induced tumor necrosis factor-α release” value [4] was 18.5 ± 1.2 ng/mL, the “condition of survived mice after LPS initiation” value ([5]; LPS 60 mg/kg i.p., Compound 3 10 mg/kg oral post-treatment) was “remained vigorous more than one month” and the “survival rate of mice” value ([5]; LPS 60 mg/kg i.p., Compound 3 10 mg/kg oral two hours after LPS) was “significantly increased”. The “histological examination of lung tissues” value ([5]; post-treated Compound 3 group, LPS mice) was “intact blood vessels without the infiltration of blood cells”, the “increase in cell number” value ([6]; Compound 3 alone, not statistically significant) was 11% and the “Cell survival (%)” value ([6]; ODQ + Compound 3) was 96.1 ± 4.2%. For the same compound, the “Cell survival (%)” value ([6]; ODQ + SNP + Compound 3) was 69.6 ± 4.0 %, the “effect on SNP-induced apoptosis” value [6] was “completely abolished” and the “Cell survival (%)” value ([6]; SNP + Compound 3 (SNP 1 mmol/L, Compound 3 30 μmol/L)) was 100.6±5.5% and 102.9 ± 8.1^+ %. The “ODQ-irresponsible action in Compound 3-mediated effect” value ([6]; remaining anti-apoptotic effect in presence of ODQ) was “about 20%”, the “Cell survival (%)” value [6, 13] was 111.3 ± 8.8% and the “effect on SNP-induced caspase-3 activity” value ([7]; SNP 1 mmol/L, RASMCs) was “completely inhibited”. For the same compound, the “effect on SNP-induced cytochrome c release” value ([8]; SNP 1 mmol/L) was “completely prevented”, the cGMP synthesis ([9]; Compound 3 alone, basal 2.3±0.3, 10 minutes) was 4.2±0.8 fmol/well and the cGMP formation [9, 14] was 252.8±81.8 fmol/well. For the same compound, the “increase of cGMP formation (folds)” value [9, 14] was “more than sixty folds”, the “NO formation (nitrite)” value [10] was 53.4 ± 12.3 µmol/L and the “phosphorylated Akt expression” value ([11]; Compound 3 alone) was “profound increase”. For the same compound, the “phosphorylated Akt expression” value ([11]; Compound 3 in combination with SNP) was “profound increase” and the “inhibition on cyclooxygenase activity” value [12] was “no inhibition”.
With O=c1onc2cnc3ccccc3n12 [ODQ, reference compound] the “effect on preventive action of Compound 3 (Bcl-2 down-regulation)” value [2, 15] was “fully reversed”, the “effect on Compound 3-induced cell proliferation” value [6] was “completely inhibited” and the “effect on SNP-induced apoptosis” value [6] was “no influence”. For the same compound, the “effect on Compound 3-mediated anti-apoptotic action” value [6] was “significantly reversed”, the “Cell survival (%)” value [6, 13] was 99.5 ± 5.7% and the “effect on Compound 3-mediated inhibition of caspase-3 activity” value [7, 15] was “partially but significantly reversed”. For the same compound, the “effect on preventive action of Compound 3 (cytochrome c release)” value [8, 15] was “fully reversed”, the cGMP level ([9]; ODQ + Compound 3 alone) was “the basal value” and the cGMP level ([9]; ODQ + combination of SNP and Compound 3) was ~21 fmol/well. For the same compound, the “effect on Compound 3-induced phosphorylated Akt expression” value ([11]; Compound 3 alone or with SNP) was “profoundly inhibited”.
With COc1cccc(-c2cc(=O)c3ccccc3o2)c1N [PD98059] the “effect on Compound 3-induced cell proliferation” value [6] was “completely inhibited” and the “effect on Compound 3-mediated anti-apoptotic action” value [6] was “significantly reversed; also recorded: not PD98059 reversed”.
In the case of Cn1cc(C2=C(c3cn(CCCSC(=N)N)c4ccccc34)C(=O)NC2=O)c2ccccc21 [Ro-318220], the cell survival ([6]; Ro-318220 added to Compound 3 plus SNP, n=7) is reported as 107.1±3.1% and the “effect on Compound 3-mediated anti-apoptotic action” value [6] is reported as “little influence”.
With CCCC(=O)Nc1nc2c(ncn2C2OC3COP(=O)([O-])OC3C2OC(=O)CCC)c(=O)[nH]1.[Na+] (centres unmarked) [dibutyl-cGMP] the “effect on SNP-induced apoptosis” value [6] was “significantly reverse”.
